In patent publication US12162819B2, “Ionizable lipid compounds” (Beijing Jitai Pharmaceutical Technology Co., Ltd., priority 2022, dated 2024):

Tests used:
[1] = tested on: C57BL/6 mice; test: In vivo bioluminescence assay of lipid nanoparticles encapsulated with luciferase mRNA in mice; details: for Total photon count in vivo at 6 hours after administration (Total Flux): C57BL/6 mice, intravenous, single dose 0.5 mg/kg luciferase mRNA in LNP, group mean; for in vivo delivery efficiency compared with the molecule without tetramethyl: LNP with luciferase mRNA in mice, compound 20 vs. D1, compound 46 vs. D2
Experimental: (§1) Lipid nanoparticles were prepared by (1) dissolving and mixing ionizable lipid compounds, cholesterol, phospholipids and polyethylene glycolated lipids in ethanol at (molar percentages) 50%, 38.5%, 10% and 1.5%, respectively; (2) dissolving the mRNA active ingredient in 25 mM sodium acetate solution (pH=4.5); (3) using an automated high-throughput microfluidic system to mix the organic phase containing the lipid mixture and the aqueous phase containing the mRNA component in the flow ratio range of 1:1 to 1:4 at a mixing speed of 10 mL/min to 18 mL/min; (4) the prepared lipid nanoparticles (N/P ratio of 6) were diluted with phosphate buffer solution and the nanoparticle solutions were ultrafiltered to the original preparation volume using ultrafiltration tubes (purchased from Millipore) with a cut-off molecular weight of 30 kDa; and (5) the obtained nanoparticles were filtered through a sterile 0.2 μm filter membrane and then stored in a sealed glass vial at low temperature.
The delivery effect and safety of nanoparticles encapsulated with luciferase mRNA (Trilink, L-7202) in mice were evaluated. The test mice were SPF-grade C57BL/6 mice, female, 6-8 weeks old, weighing 18-22 g, and were purchased from SPF (Beijing) Biotechnology Co., Ltd. All animals were acclimatized for more than 7 days prior to the experiment, and had free access to food and water during the experiment. The conditions include alternating light and dark for 12/12 h, the indoor temperature of 20-26° C. and the humidity of 40-70%. The mice were randomly grouped. The lipid nanoparticles encapsulated with luciferase mRNA prepared above were injected into mice by intravenous administration at a single dose of 0.5 mg/kg mRNA, and the mice were subjected to in vivo bioluminescence assay using a Small Animal In Vivo Imaging System (IVIS LUMINA III, purchased from PerkinElmer) at 6 h after administration. The assay was performed as follows: D-luciferin solution was prepared in saline at a concentration of 15 mg/mL, and each mouse was given the substrate by intraperitoneal injection. At ten minutes after administration of the substrate, the mice were anesthetized in an anesthesia chamber with isoflurane at a concentration of 2.5%. The anesthetized mice were placed in IVIS for fluorescence imaging, and data acquisition and analysis were performed on the concentrated distribution area of fluorescence.
The in vivo delivery efficiency of lipid nanoparticle carriers was expressed as the mean values of fluorescence intensity and total photon count in different animals within the same subject group, as shown in Table 5. Higher values of fluorescence intensity and total photon count indicate higher in vivo delivery efficiency of this mRNA fragment by lipid nanoparticles. The lipid nanoparticles containing the cationic lipids of the present disclosure have good in vivo delivery efficiency.

[2] = Encapsulation efficiency of lipid nanoparticles, Quant-It RiboGreen RNA Assay; type: physicochemical; details: lipid nanoparticle with the cationic lipid, luciferase mRNA
Experimental: as §1
(§2) The particle size and particle size dispersity index (PDI) of the prepared lipid nanoparticles were measured using a Zetasizer Pro (purchased from Malvern Instruments Ltd) and a DynaPro NanoStar (purchased from Wyatt) dynamic light scattering instrument. The degree of RNA encapsulation by lipid nanoparticles was characterized by the Encapsulation Efficiency %, which reflects the degree of binding of lipid nanoparticles to RNA fragments. This parameter was measured by the method of Quant-It™ RiboGreen RNA Assay (purchased from Invitrogen). Lipid nanoparticle samples were diluted in TE buffer (10 mM Tris-HCl, 1 mM EDTA, pH=7.5). A portion of the sample solution was removed, to which 0.5% Triton (Triton X-100) was added, and then allowed to stand at 37° C. for 30 minutes. Immediately after the addition of RIBOGREEN® reaction solution, the fluorescence values were read on a Varioskan LUX multifunctional microplate reader (purchased from Thermofisher) at 485 nm for absorption and 528 nm for emission to give the encapsulation efficiency values.

[3] = Particle size and PDI of lipid nanoparticles by dynamic light scattering; type: physicochemical; details: lipid nanoparticle with the cationic lipid, cholesterol, DSPC, DMG-PEG2000 (50/38.5/10/1.5 mol%), luciferase mRNA, N/P 6
Experimental: as §1, §2

Encapsulation efficiency (%) [2] [%]	Particle size (nm) [3] [nm]	Particle size dispersity (PDI) [3]	SMILES	Total photon count in vivo at 6 hours after administration (Total Flux) [1]	in vivo delivery efficiency compared with the molecule without tetramethyl [1]
56.65	157.10	0.08	CCCCCCCCCCNC(=O)C(C)(C)CCCCCC(CCCCCC(C)(C)C(=O)NCCCCCCCCCC)OC(=O)CN(C)C [Compound 13]	1.08E+06	–
45.66	306.07	0.08	CCCCCCCCCCNC(=O)C(C)(C)CCCCCC(CCCCCC(C)(C)C(=O)NCCCCCCCCCC)OC(=O)CCCN(C)C [Compound 14]	6.34E+07	–
96.52	55.39	0.05	CCCCCCCCC(CCCCCC)OC(=O)C(C)(C)CCCCCC(CCCCCC(C)(C)C(=O)OC(CCCCCC)CCCCCCCC)OC(=O)CCN(C)C (centres unmarked) [Compound 16]	3.97E+07	–
71.93	99.61	0.10	CCCCCCCCCOC(=O)C(C)(C)CCCCCC(CCCCCC(C)(C)C(=O)OCCCCCCCCC)OC(=O)CCCN(C)C [Compound 20]	–	significantly increased in vivo delivery efficiency
95.68	97.30	0.09	CCCCCCCCCOC(=O)C(C)(C)CCCCCC(CCCCCC(C)(C)C(=O)OCC(CCCCC)CCCCCCC)OC(=O)CCCN(C)C (centres unmarked) [Compound 46]	–	significantly increased in vivo delivery efficiency
95.12	141.30	0.06	CCCCCCCCCOC(=O)C(C)(C)CCCCCC(CCCCCC(C)(C)C(=O)OCC(CCCCC)CCCCCCC)OC(=O)CC1CCN(C)CC1 (centres unmarked) [Compound 111]	–	–
94.41	121.05	0.08	CCCCCCCCCSC(=O)C(C)(C)CCCCCC(CCCCCC(C)(C)C(=O)OCC(CCCCC)CCCCCCC)OC(=O)CC1CCN(C)CC1 (centres unmarked) [Compound 112]	–	–
89.36	88.62	0.05	CCCCCCCC#CCOC(=O)C(C)(C)CCCCCC(CCCCCC(C)(C)C(=O)OCC(CCCCC)CCCCCCC)OC(=O)CCCN(C)C (centres unmarked) [Compound 116]	–	–
95.29	127.31	0.06	CCCCC(CC#CCOC(=O)C(C)(C)CCCCCC(CCCCCC(C)(C)C(=O)OCC#CCC(CCCC)CCCC)OC(=O)CCCN(C)C)CCCC [Compound 117]	–	–
91.76	96.72	0.07	CCCCCCCCCOC(=O)C(C)(C)CCCCC(CCCCC(C)(C)C(=O)OCC(CCCCC)CCCCCCC)OC(=O)CCCN(C)C (centres unmarked) [Compound 122]	–	–
89.45	95.69	0.07	CCCCCCCCCOC(=O)C(C)(C)CCCCCCC(CCCCCCC(C)(C)C(=O)OCC(CCCCC)CCCCCCC)OC(=O)CCCN(C)C (centres unmarked) [Compound 125]	–	–
94.35	133.76	0.06	CCCCCCCCCOC(=O)C(C)(C)CCCCCCC(CCCCCCC(C)(C)C(=O)OCC(CCCCC)CCCCCCC)OC(=O)CCCCN(C)C (centres unmarked) [Compound 126]	–	–
79.88	83.10	0.05	CCCCCCC(CCCCCC)CCOC(=O)CCC(C)(C)CCCC(CCCC(C)(C)CCC(=O)OCCC(CCCCCC)CCCCCC)OC(=O)CCCN(C)C [Compound 128]	–	–
79.63	245.33	0.20	CCCCCCCCCOC(=O)CCCCCCC(CCCCCCC(=O)OCC(CCCCC)CCCCCCC)OC(=O)CCCN(C)C (centres unmarked) [Compound D2, reference compound]	–	–

The remaining lines, values behind:

SMILES	Encapsulation efficiency (%) [2] [%]	Particle size (nm) [3] [nm]	Particle size dispersity (PDI) [3]	Total photon count in vivo at 6 hours after administration (Total Flux) [1]	in vivo delivery efficiency compared with the molecule without tetramethyl [1]
CCCCCCCCN(CCCCCCCC)CCOC(=O)C(C)(C)CCCCCC(CCCCCC(C)(C)C(=O)OCCN(CCCCCCCC)CCCCCCCC)OC(=O)CCN(C)C [Compound 15]	84.78	91.68	0.06	4.89E+08	–
CCCCCCCCCOC(=O)CC(C)(C)CCCCC(CCCCC(C)(C)CC(=O)OCCCCCCCCC)OC(=O)CCCN(C)C [Compound 97]	93.72	157.00	0.25	3.37E+09	–
CCCCCCCCCCOC(=O)C(C)(C)CCCCCC(CCCCCC(C)(C)C(=O)OCCCCCCCCCC)OC(=O)C1CCN(C)CC1 [Compound 99]	90.69	139.99	0.05	5.30E+09	–
CCCCCCCCCSC(=O)C(C)(C)CCCCCC(CCCCCC(C)(C)C(=O)SCCCCCCCCC)OC(=O)CC1CCN(CC)CC1 [Compound 109]	87.11	101.04	0.06	–	–
CCCCCCCCCSC(=O)C(C)(C)CCCCCC(CCCCCC(C)(C)C(=O)SCCCCCCCCC)OC(=O)CC1CCN(CCO)CC1 [Compound 110]	92.65	97.59	0.01	2.06E+08	–
CCCCCCCCCOC(=O)C(C)(C)CCCCCC(CCCCCC(C)(C)C(=O)OCCCCCCCCC)OC(=O)CC1CCN(CCO)CC1 [Compound 113]	94.77	112.65	0.03	3.59E+08	–
CCCCCCCCCOC(=O)C(C)(C)CCCCCC(CCCCCC(C)(C)C(=O)OCC(CCCCC)CCCCCCC)OC(=O)CC1CCN(CCO)CC1 (centres unmarked) [Compound 114]	93.41	72.32	0.04	1.06E+08	–
CCCCCCCC#CCOC(=O)C(C)(C)CCCCCC(CCCCCC(C)(C)C(=O)OCCCC(CCCCC)CCCCC)OC(=O)CCCN(C)C (centres unmarked) [Compound 115]	91.76	77.12	0.04	–	–
CCCCCCCCCOC(=O)C(C)(C)CCCCCC(CCCCCC(C)(C)C(=O)OCC#CC(CCCCCC)CCCCCC)OC(=O)CCCN(C)C (centres unmarked) [Compound 118]	93.87	88.33	0.07	–	–
CCCCCCCCCCOC(=O)C(C)(C)CCCCC(CCCCC(C)(C)C(=O)OCC(CCCCC)CCCCCCC)OC(=O)CCCN(C)C (centres unmarked) [Compound 123]	92.27	84.98	0.05	–	–
CCCCCCCC(CCCCCCC)COC(=O)CCC(C)(C)CCCC(CCCC(C)(C)CCC(=O)OCC(CCCCCCC)CCCCCCC)OC(=O)CCCN(C)C [Compound 129]	57.87	112.08	0.06	–	–
CCCCCCCCCOC(=O)CCCCCCC(CCCCCCC(=O)OCCCCCCCCC)OC(=O)CCCN(C)C [Compound D1, reference compound]	97.08	131.2	0.18	–	–
